Measured values taken from paper PMC4111124, “Functional characterization of Candida albicans Hos2 histone deacetylase” (F1000Research, 2014).

Key:
Hos2 histone deacetylase [1] = molecular target: T1, Hos2 histone deacetylase (Candida albicans, UniProt A0A1D8PJ17); test: biochemical
T1 construct: full length, N-terminal hexa-histidine tag, expressed in Sf9 cells

Hos2 histone deacetylase [2] = molecular target: T1, Hos2 histone deacetylase; test: fluorogenic deacetylase assay with Boc-Lys(Ac)-AMC, % inhibition at […]; format: biochemical; conditions: read-out: % inhibition ± SE / 10 μM

T1 sequence (A0A1D8PJ17 entry or part of it): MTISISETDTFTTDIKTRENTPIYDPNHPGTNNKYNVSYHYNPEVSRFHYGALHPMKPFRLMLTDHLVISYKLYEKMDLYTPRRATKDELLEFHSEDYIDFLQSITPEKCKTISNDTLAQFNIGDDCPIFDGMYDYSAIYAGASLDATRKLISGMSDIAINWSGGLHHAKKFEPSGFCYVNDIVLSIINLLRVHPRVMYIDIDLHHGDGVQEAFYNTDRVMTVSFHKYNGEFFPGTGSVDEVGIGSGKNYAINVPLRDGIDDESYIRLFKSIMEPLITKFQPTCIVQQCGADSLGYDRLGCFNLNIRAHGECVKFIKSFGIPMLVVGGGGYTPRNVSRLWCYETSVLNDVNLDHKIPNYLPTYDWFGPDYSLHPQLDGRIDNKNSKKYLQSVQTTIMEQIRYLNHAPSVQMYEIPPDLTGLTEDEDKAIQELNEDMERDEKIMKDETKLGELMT

Row | inhibition at 10 µM (Hos2 histone deacetylase [2]) | Structure (SMILES) | IC50 (Hos2 histone deacetylase [1])
1 | – | CC(/C=C/C(=O)NO)=C\[C@@H](C)C(=O)c1ccc(N(C)C)cc1 [TSA] | 2.8 nM
2 | 56.3% | Nc1ccccc1NC(=O)c1ccc(CNC(=O)OCc2cccnc2)cc1 [MS-275] | –
